Reference: publication PMC12444563 (ACS Omega, 2025)
Read-outs that look alike come from different tables or passages of the source. Starred links: 1 amine or outer side, 2 acyl side, 3 side chain; linkers in the order of their positions; H or OH if unused. Non-standard residues stand in square brackets, D forms with d. Residues, ends and D or L forms follow the SMILES beside them. *: point of attachment. Paclitaxel(2'-OCO-DMEDA) = CC(=O)O[C@H]1C(=O)[C@@]2(C)[C@H]([C@H](OC(=O)c3ccccc3)[C@]3(O)C[C@H](OC(=O)[C@H](OC(=O)N(C)CCN(C)*)[C@@H](NC(=O)c4ccccc4)c4ccccc4)C(C)=C1C3(C)C)[C@]1(OC(C)=O)CO[C@@H]1C[C@@H]2O; Fmoc = O=C(OCC1c2ccccc2-c2ccccc21)*; PABC = O=C(OCc1ccc(N[*:1])cc1)[*:2]

How the values were obtained:
[1] = Plasma stability assay, rat plasma; format: in vitro ADME, rat (Sprague Dawley); details: 37 °C; for remaining at 0.5 h, 1 μM / remaining at 2 h, 1 μM / remaining at 4 h, 1 μM: Sprague Dawley, read-out: Plasma stability (matrix: rat) % remaining; for remaining at 0.5 h, 1 μM: 30 min; for remaining at 2 h, 1 μM: 120 min
Method: (§1) The plasma stability assays were performed by Selvita SA (Krakow, Poland) following the protocol described in the Supporting Information. For the use of human plasma, consent was obtained from the subject or from the next of kin.
9. Plasma stability assays
Protocol for full plasma assay: a stock solution of compounds 1-4 in DMSO was incubated in human (Anticoagulants: Na Heparin; Gender: Pooled; Cat. No: IPLANAH100ML; Lot: 37921; Supplier:
Innovative Research) and rat (Strain: Sprague Dawley; Anticoagulants: Na Heparin; Cat. No:
IGRTSDPLANAH100ML; Supplier: Innovative Research) plasma at a final concentration of 1 μM (final concentration of DMSO = 1 %). The samples were incubated at 37 °C with a shaking of 450 rpm. Aliquots of the samples were analyzed at time 0, 30 minutes, 2 and 4 hours by LC-MS/MS […]
(§2) The areas of the peak of the compounds 1-4 in the LC chromatogram were used to evaluate stability profile. The percentage of residual compounds 1-4 was calculated as the ratio between the area of the peak of the analyte and the area of the internal standard.
(§3) % residual compound = Area analyte ∙ 100
(§4) Table S7. LC-MS data of the stability assays in plasma extracts of compound 1.
(§5) Stability assays compound 1
(§6) Time Plasma stability Plasma stability S9 stability S9 stability
(§7) (min.) (matrix: rat) (matrix: human) Time (min.) (matrix: rat) (matrix: human) % remaining % remaining % remaining % remaining
(§8) Table S8. LC-MS data of the stability assays in plasma extracts of compound 2.
(§9) Stability assays compound 2

[2] = molecular target: T1, bovine spleen Cathepsin B (Bos taurus, UniProt P07688); assay: Cathepsin B cleavage assay (UHPLC-HRMS Orbitrap analysis); format: biochemical; details: for % residual compound, Average %: 37 °C, pH 5.4, 5 μM, triplicate
T1 construct: bovine spleen Cathepsin B (SigmaAldrich C6286, ≥10 units/mg protein); purchased SigmaAldrich C6286; host or cells: bovine spleen (tissue-derived)
Method: The Cathepsin B cleavage assay was performed by incubating compounds 1–4 at 37 °C under gently shaking conditions in the presence of the active form of Cathepsin B. More specifically, 122.4 μL of an enzyme-activating solution (composed of 7.48 mg of L-cysteine dissolved in 2 mL of a buffer solution containing 20 mM NaOAc, 1 mM EDTA, pH 5.4 to give a final cysteine concentration of 30.88 mM) was mixed with 12.6 μL of enzyme stock solution, previously prepared by solubilization of bovine spleen Cathepsin B (SigmaAldrich C6286, ≥10 units/mg protein) in 1 mL of buffer solution (without cysteine) to give a concentration of enzyme stock solution of 12 units/mL. After the dilution, the final concentration of Cathepsin B was 1.12 u/mL. Then, the diluted enzyme solution was incubated at 37 °C for 15 min to activate Cathepsin B. After 15 min, 6 μL of 117 μM compound solution, previously prepared by diluting 5.85 μL of 1 mM stock solution of the compound in 44.15 μL of dry DMSO (giving a 117 μM solution), was added to the test tube and the cleavage assay solution was incubated at 37 °C under gentle shaking conditions. […] The solutions were then centrifuged for 10 min at 6000 rpm. Blank solutions were prepared for each compound by dilution of 6 μL of a 117 μM compound solution into 135 μL of an enzyme-activating solution. UHPLC-MS analyses were carried out using a Vanquish UHPLC System (Thermo Fisher Scientific) and Orbitrap Exploris 120 (Thermo Fisher Scientific). Thermo Scientific Xcalibur software was used to control the instruments and acquire the data. Freestyle 1.8 software was used for processing the data. UHPLC chromatographic separations were performed on a reversed-phase column Accucore C18 50 × 2.1 mm, 2.6 μm (Thermo Fisher Scientific). A gradient system was used with the mobile phase consisting of solvent A: H2O + 0.05% formic acid and solvent B: acetonitrile. The areas of the peak of compounds 1–4 in the extracted ion chromatogram were used to evaluate the kinetics of the cleavage process. The percentage of residual compound was calculated as the ratio between the areas of the peak of the full compound at the desired time point and in the blank analysis. %Residualcompound=areacompoundatthedesiredtimepoint/areacompoundintheblanksolution×100

[3] = Liver S9 fraction stability assay, human; format: in vitro ADME; details: 37 °C; for remaining at 0.5 h, 1 μM / remaining at 1.5 h, 1 μM: male, liver S9 fraction, read-out: S9 stability (matrix: human) % remaining; for remaining at 0.5 h, 1 μM: 30 min
Method: as §1
9. Plasma stability assays […]
Protocol for S9 fraction: a stock solution of compounds 1-4 in DMSO was incubated in human (male, pooled, commercially obtained from Xeno-tech lot: 2310104) and rat (male, pooled, commercially obtained from Xeno-tech (lot: 2210317)) S9 fraction at a final concentration of 1 μM (final concentration of DMSO = 0.5 %). The samples were incubated at 37 °C with a shaking of 450 rpm.
Aliquots of the samples were analyzed at time 0, 30 and 90 minutes by LC-MS/MS analysis.
as §2, §3, §4, §5, §6, §7, §8, §9

[4] = 2 min incubation with Cathepsin B
[5] = 15 min incubation with Cathepsin B
[6] = 30 min incubation with Cathepsin B
[7] = 60 min incubation with Cathepsin B
[8] = 120 min incubation with Cathepsin B

Structure (SMILES) | remaining at 0.5 h, 1 μM ([1]; rat, plasma) [%] | remaining at 2 h, 1 μM ([1]; rat, plasma) [%] | remaining at 4 h, 1 μM ([1]; rat, plasma, 240 min (4 h)) [%] | % residual compound, Average % [2, 4] [%] | % residual compound, Average % [2, 5] [%] | % residual compound, Average % [2, 6] [%] | % residual compound, Average % [2, 7] [%] | % residual compound, Average % [2, 8] [%] | % residual compound, % R1 ([2]; replicate R1, 2 min) [%] | % residual compound, % R1 ([2]; replicate R1, 15 min) [%] | % residual compound, % R1 ([2]; replicate R1, 30 min) [%] | % residual compound, % R1 ([2]; replicate R1, 60 min) [%] | % residual compound, % R1 ([2]; replicate R1, 120 min) [%] | % residual compound, % R1 ([2]; replicate R1, 240 min) [%] | % residual compound, % R3 ([2]; replicate R3, 2 min) [%] | % residual compound, % R3 ([2]; replicate R3, 15 min) [%] | % residual compound, % R3 ([2]; replicate R3, 30 min) [%] | % residual compound, % R3 ([2]; replicate R3, 60 min) [%] | % residual compound, % R3 ([2]; replicate R3, 120 min) [%] | % residual compound, % R3 ([2]; replicate R3, 240 min) [%] | further results
CC(=O)O[C@H]1C(=O)[C@@]2(C)[C@H]([C@H](OC(=O)c3ccccc3)[C@]3(O)C[C@H](OC(=O)[C@H](OC(=O)N(C)CCN(C)C(=O)OCc4ccc(NC(=O)CNC(=O)[C@H](CC(C)C)NC(=O)[C@@H]5CCCN5C(=O)CNC(=O)OCC5c6ccccc6-c6ccccc65)cc4)[C@@H](NC(=O)c4ccccc4)c4ccccc4)C(C)=C1C3(C)C)[C@]1(OC(C)=O)CO[C@@H]1C[C@@H]2O [Compound 1, Fmoc-GPLG-PABC-diamine-PTX] (Fmoc-GPLG[PABC]-{Paclitaxel(2'-OCO-DMEDA)}) | 98.1 | 111 | 103 | 94.40 | 80.50 | 73.35 | 68.45 | 65.40 | 108.85 | 85.04 | 73.97 | 68.69 | 69.51 | 56.09 | 97.22 | 78.25 | 74.08 | 69.05 | 67.07 | 70.97 | Plasma stability (matrix: rat) % remaining ([1]; 1 μM, 240 min (4 h)): 100%; peak of free Paclitaxel in the incubated solution ([2]; 4 h incubation with Cathepsin B, HRMS): not possible to observe; peak of free PTX in the incubated solution ([2]; 24 h incubation with Cathepsin B, HRMS): confirmed the presence; cleavage kinetics compared within compounds 1-4 ([2]; Cathepsin B, compound 1: initial time points 2 min to 1 h, compound 2: over 4 h): fastest; remaining at 0.5 h, 1 μM ([3]; human): 104%; remaining at 1.5 h, 1 μM ([3]; human, 90 min (1.5 h)): 95%
CC(=O)O[C@H]1C(=O)[C@@]2(C)[C@H]([C@H](OC(=O)c3ccccc3)[C@]3(O)C[C@H](OC(=O)[C@H](OC(=O)N(C)CCN(C)C(=O)OCc4ccc(NC(=O)CNC(=O)[C@H](CC(C)C)NC(=O)[C@H](Cc5ccccc5)NC(=O)CNC(=O)OCC5c6ccccc6-c6ccccc65)cc4)[C@@H](NC(=O)c4ccccc4)c4ccccc4)C(C)=C1C3(C)C)[C@]1(OC(C)=O)CO[C@@H]1C[C@@H]2O [Compound 2, Fmoc-GFLG-PABC-diamine-PTX] (Fmoc-GFLG[PABC]-{Paclitaxel(2'-OCO-DMEDA)}) | 92.1 | 99 | 103 | 99.63 | 98.45 | 95.35 | 95.89 | 94.14 | 99.33 | 98.52 | 92.26 | 92.45 | 99.27 | 96.36 | 104.39 | 102.02 | 95.37 | 97.64 | 90.86 | 89.52 | remaining at 0.5 h, 1 μM ([3]; human): 133%; remaining at 1.5 h, 1 μM ([3]; human, 90 min (1.5 h)): 95.2%
CC(=O)O[C@H]1C(=O)[C@@]2(C)[C@H]([C@H](OC(=O)c3ccccc3)[C@]3(O)C[C@H](OC(=O)[C@H](OC(=O)N(C)CCN(C)C(=O)OCc4ccc(NC(=O)[C@H](CCCNC(N)=O)NC(=O)[C@@H](NC(=O)OCC5c6ccccc6-c6ccccc65)C(C)C)cc4)[C@@H](NC(=O)c4ccccc4)c4ccccc4)C(C)=C1C3(C)C)[C@]1(OC(C)=O)CO[C@@H]1C[C@@H]2O [Compound 3, Fmoc-VCit-PABC-diamine-PTX] |  |  |  | 99.48 | 89.60 | 88.90 | 82.88 | 80.39 | 91.44 | 87.83 | 70.58 | 80.56 | 76.58 | 81.21 | 106.03 | 90.55 | 97.99 | 89.93 | 81.32 | 71.70 | remaining at 0.5 h, 1 μM [1]: 123%; remaining at 2 h, 1 μM [1]: 113%; remaining at 4 h, 1 μM ([1]; 240 min (4 h)): 118%; % residual compound, Average % ([2]; 240 min (4 h) incubation with Cathepsin B): 76%; remaining at 0.5 h, 1 μM [3]: 133%; remaining at 1.5 h, 1 μM ([3]; 90 min (1.5 h)): 95.2%
CC(=O)O[C@H]1C(=O)[C@@]2(C)[C@H]([C@H](OC(=O)c3ccccc3)[C@]3(O)C[C@H](OC(=O)[C@H](OC(=O)N(C)CCN(C)C(=O)OCc4ccc(NC(=O)[C@H](C)NC(=O)[C@@H](NC(=O)OCC5c6ccccc6-c6ccccc65)C(C)C)cc4)[C@@H](NC(=O)c4ccccc4)c4ccccc4)C(C)=C1C3(C)C)[C@]1(OC(C)=O)CO[C@@H]1C[C@@H]2O [Compound 4, Fmoc-VA-PABC-diamine-PTX] | 96.1 | 104 | 108 | 98.31 | 89.84 | 76.32 | 72.91 | 58.50 | 105.08 | 98.99 | 79.84 | 76.95 | 61.83 | 68.01 | 98.31 | 83.72 | 80.54 | 75.94 | 52.91 | 49.81 | S9 stability (matrix: human) % remaining ([3]; 1 μM, 90 min (1.5 h)): 79.75%; remaining at 0.5 h, 1 μM ([3]; human): 107%; remaining at 1.5 h, 1 μM ([3]; human, 90 min (1.5 h)): 79.7%
